Data as given in US6476187B1, “Methods and reagents for discovering and using mammalian melanocortin receptor agonists and antagonists to modulate feeding behavior in animals” (Oregon Health & Sciences University, priority 1992, dated 2002).
Residues, ends and D or L forms follow the SMILES beside them.

How the values were obtained:
[1] = molecular target: T1, murine αMSH receptor (MC-1) (Mus musculus, UniProt Q01727); assay: intracellular cAMP accumulation in 293 cells transfected with mouse αMSH receptor; assay type: cell-based; details: 293 cells expressing murine αMSH receptor
T1 construct: excising the entire coding region of the αMSH^R (MC-1) cDNA insert comprising a 2.1 kb fragment; expressed in transfected cells; host or cells: human 293 cells, pcDNAI/neo, G418-selected
T1 sequence (Q01727 whole entry, the tested form may be a part): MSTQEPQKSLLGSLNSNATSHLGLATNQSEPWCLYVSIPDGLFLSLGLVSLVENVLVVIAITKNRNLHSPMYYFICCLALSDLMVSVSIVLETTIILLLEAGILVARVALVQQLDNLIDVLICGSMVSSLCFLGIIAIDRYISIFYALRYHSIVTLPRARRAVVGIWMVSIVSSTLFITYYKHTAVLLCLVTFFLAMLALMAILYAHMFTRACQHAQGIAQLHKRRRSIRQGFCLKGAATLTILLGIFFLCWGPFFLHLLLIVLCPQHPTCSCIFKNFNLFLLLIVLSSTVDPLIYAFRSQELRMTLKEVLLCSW
Experimental: After transfection, cells were cultured in DMEM media supplemented with 10% calf serum in a 3% CO2 atmosphere at 37° C. Selection was performed with neomycin (G418; GIBCO) at a concentration of 1000 μg/mL; selection was started 72 hr after transfection and continued for 3 weeks.
Following hormone treatment, the cells were washed twice with phosphate buffered saline and intracellular cAMP extracted by lysing the cells with 1 mL of 60% ethanol.

[2] = molecular target: T2, rat MC3-R (Rattus norvegicus, UniProt P32244); assay: intracellular cAMP production in 293 cells expressing MC3-R; assay type: cell-based; details: 1 h at 37° C.
T2 construct: The entire coding region of the MC-3 receptor cDNA insert; expressed in transfected cells; host or cells: human 293 cells, pcDNA/neo I, G418-selected
T2 sequence (P32244 whole entry): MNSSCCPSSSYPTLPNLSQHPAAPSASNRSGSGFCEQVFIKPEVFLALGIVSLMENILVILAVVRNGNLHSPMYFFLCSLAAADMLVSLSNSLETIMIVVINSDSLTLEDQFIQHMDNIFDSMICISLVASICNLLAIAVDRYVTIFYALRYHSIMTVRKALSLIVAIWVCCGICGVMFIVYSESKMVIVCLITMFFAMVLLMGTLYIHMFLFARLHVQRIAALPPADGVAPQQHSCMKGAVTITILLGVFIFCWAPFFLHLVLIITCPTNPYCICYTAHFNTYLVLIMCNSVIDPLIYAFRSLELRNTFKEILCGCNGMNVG
Experimental: cAMP production assays as described above were also used to analyze expression of MC3-R in cells transfected with the expression vectors described herein as follows. […] Following hormone treatment, the cells were washed twice with phosphate buffered saline and intracellular cAMP extracted by lysing the cells with 1 mL of 60% ethanol.

[3] = molecular target: T3, rat MC-3 receptor (Rattus norvegicus, UniProt P32244); assay: competition of [Nle4,D-Phe7]α-MSH binding to rat MC-3 receptor; details: peptide about 60% pure; IC50 could not be determined
T3 construct: The entire coding region of the MC-3 receptor cDNA insert; expressed in transfected cells; host or cells: human 293 cells, pcDNA/neo I, G418-selected
T3 sequence (P32244 whole entry): as above
Source text: […]. In these experiments, murine agouti peptide was produced using a baculovirus system as described by Lu et al., (1994, Nature 371: 799-802), with the modification that the agouti peptide was purified from baculovirus supernatants by 0.6M NaCl step elution from an EconoS cation exchange column (BioRad). Agouti peptide used in these assays was approximately 60% pure.

[4] = molecular target: human MC-4-R (Homo sapiens, UniProt P32245); details: Lu et al., 1994; cited from earlier work
human MC-4-R, sequence (P32245 whole entry): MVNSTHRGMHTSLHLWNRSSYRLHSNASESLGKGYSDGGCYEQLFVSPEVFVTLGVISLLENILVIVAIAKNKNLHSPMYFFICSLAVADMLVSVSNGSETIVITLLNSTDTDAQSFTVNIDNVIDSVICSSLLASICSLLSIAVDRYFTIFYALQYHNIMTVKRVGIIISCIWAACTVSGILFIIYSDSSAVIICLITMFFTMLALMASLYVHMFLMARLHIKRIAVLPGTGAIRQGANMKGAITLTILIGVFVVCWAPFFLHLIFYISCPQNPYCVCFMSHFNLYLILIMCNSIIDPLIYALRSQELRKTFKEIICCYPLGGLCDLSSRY

For CSCC[C@H](NC(=O)[C@H](CCCNC(=N)N)NC(=O)[C@H](Cc1ccc(O)cc1)NC(=O)[C@@H]1CCCN1C(=O)CNC(=O)[C@H](CCC(=O)O)NC(=O)[C@H](CC(=O)O)NC(=O)[C@H](CCCCN)NC(=O)[C@H](CCCCN)NC(=O)[C@H](CCC(=O)O)NC(=O)[C@H](C)N)C(=O)N[C@@H](CCC(=O)O)C(=O)N[C@@H](Cc1c[nH]cn1)C(=O)N[C@@H](Cc1ccccc1)C(=O)N[C@@H](CCCNC(=N)N)C(=O)N[C@@H](Cc1c[nH]c2ccccc12)C(=O)NCC(=O)N[C@@H](CO)C(=O)N1CCC[C@H]1C(=O)N1CCC[C@H]1C(=O)N[C@@H](CCCCN)C(=O)N[C@@H](CC(=O)O)C(=O)O [βMSH], the “EC50 (intracellular cAMP)” value ([1]; 45 min at 37° C.) was “comparable to αMSH”.

With CSCC[C@H](NC(=O)[C@@H](NC(=O)[C@@H](N)Cc1ccc(O)cc1)C(C)C)C(=O)NCC(=O)N[C@@H](Cc1c[nH]cn1)C(=O)N[C@@H](Cc1ccccc1)C(=O)N[C@@H](CCCNC(=N)N)C(=O)N[C@@H](Cc1c[nH]c2ccccc12)C(=O)N[C@@H](CC(=O)O)C(=O)N[C@@H](CCCNC(=N)N)C(=O)N[C@@H](Cc1ccccc1)C(=O)NCC(=O)N[C@@H](CCCNC(=N)N)C(=O)N[C@@H](CCCNC(=N)N)C(=O)N[C@@H](CC(N)=O)C(=O)NCC(=O)N[C@@H](CO)C(=O)N[C@@H](CO)C(=O)N[C@@H](CO)C(=O)N[C@@H](CO)C(=O)NCC(=O)N[C@H](C(=O)NCC(=O)NCC(=O)N[C@@H](C)C(=O)N[C@@H](C)C(=O)N[C@@H](CCC(N)=O)C(=O)O)C(C)C [γ3-MSH] (H-YVMGHFRWDRFGRRNGSSSSGVGGAAQ-OH; N-terminus and C-terminus assumed) the EC50 [2] was 6 nM.

For CSCC[C@H](NC(=O)[C@@H](NC(=O)[C@@H](N)Cc1ccc(O)cc1)C(C)C)C(=O)NCC(=O)N[C@@H](Cc1c[nH]cn1)C(=O)N[C@@H](Cc1ccccc1)C(=O)N[C@@H](CCCNC(=N)N)C(=O)N[C@@H](Cc1c[nH]c2ccccc12)C(=O)N[C@@H](CC(=O)O)C(=O)N[C@@H](CCCNC(=N)N)C(=O)N[C@@H](Cc1ccccc1)C(N)=O [γ-MSH, γ-melanocyte stimulating hormone], the “activity in elevating intracellular cAMP” value [1] was “little or no activity”.

B1: agouti peptide: murine agouti peptide produced using a baculovirus system, approximately 60% pure (protein)
chain: HLALEETLGDDRSLRSNSSMNSLDFSSVSIVALNKKSKKISRKEAEKRKRSSKKKASMKKVARPPPPSPCVATRDSCKPPAPACCDPCASCQCRFFGSACTCRVLNPNC
In the case of B1, the “competition of [Nle4,D-Phe7]α-MSH binding” value [3] is given as “Specific competition” and the “competition of αMSH activation” value [4] is given as “Specific competition”.
